Each structure is given as a SMILES string. Where two headings read alike, the source gives them in different places.

The target of one experiment is T1, Axl (Homo sapiens, UniProt P30530).
T1 sequence (P30530 26-894): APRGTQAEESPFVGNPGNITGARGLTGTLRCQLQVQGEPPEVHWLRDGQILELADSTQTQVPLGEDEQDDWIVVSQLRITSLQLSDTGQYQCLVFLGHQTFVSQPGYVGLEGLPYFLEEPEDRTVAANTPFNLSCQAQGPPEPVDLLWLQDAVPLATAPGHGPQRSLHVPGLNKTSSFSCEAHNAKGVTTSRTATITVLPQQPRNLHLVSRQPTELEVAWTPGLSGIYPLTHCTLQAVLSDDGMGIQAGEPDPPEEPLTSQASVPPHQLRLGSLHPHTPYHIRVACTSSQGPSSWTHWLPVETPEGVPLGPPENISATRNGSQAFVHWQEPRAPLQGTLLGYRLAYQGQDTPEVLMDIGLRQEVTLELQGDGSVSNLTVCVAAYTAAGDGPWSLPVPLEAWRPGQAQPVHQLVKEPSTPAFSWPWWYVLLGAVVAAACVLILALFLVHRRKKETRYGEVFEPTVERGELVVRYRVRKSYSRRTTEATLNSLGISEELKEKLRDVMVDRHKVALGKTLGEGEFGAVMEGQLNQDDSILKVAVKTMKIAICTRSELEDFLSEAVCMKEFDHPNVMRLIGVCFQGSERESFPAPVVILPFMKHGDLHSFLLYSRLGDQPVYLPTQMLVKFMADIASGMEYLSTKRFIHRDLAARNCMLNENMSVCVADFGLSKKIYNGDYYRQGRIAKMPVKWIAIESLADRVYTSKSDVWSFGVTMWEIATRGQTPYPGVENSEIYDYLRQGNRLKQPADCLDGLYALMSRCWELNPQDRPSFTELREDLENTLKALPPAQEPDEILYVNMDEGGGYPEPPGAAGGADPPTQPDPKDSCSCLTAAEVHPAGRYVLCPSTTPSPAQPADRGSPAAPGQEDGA
The experiment in a line: LanthaScreen Eu kinase binding assay for Axl. To be noted: read-out: Axl kinase binding activity (Kd). A digest of the protocol:
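Competitive displacement of Alexa Fluor 647-labeled Tracer 236 from the kinase, with binding detected by TR-FRET with a Eu-labeled anti-GST antibody. Compounds were run as 8-step DMSO serial dilutions and incubated 1 h at room temperature. Kd was calculated relative to DMSO vehicle control wells.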

The target of the next experiment is CSF1R (Homo sapiens, UniProt P07333). The experiment in a line: KINOMEscan competition binding assay for CSF1R. Further details: DNA tag for qPCR (not a peptide); host or cells: E. coli/T7 phage or HEK-293. Summed up:
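Values are either % inhibition at 0.1 uM, relative to DMSO (100% Ctrl) and a control compound (0% Ctrl), or Kd from an 11-point 3-fold series fitted with Hill slope −1. DNA-tagged kinase binds immobilized ligand beads with compound for 1 h at room temperature, and eluted kinase is measured by qPCR.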

Where [1] appears, read: read-out: CSF1R kinase binding activity, Percent (%) inhibition.
[2] abbreviates: read-out: CSF1R kinase binding activity, Range.

Sequence of CSF1R (P07333 20-972): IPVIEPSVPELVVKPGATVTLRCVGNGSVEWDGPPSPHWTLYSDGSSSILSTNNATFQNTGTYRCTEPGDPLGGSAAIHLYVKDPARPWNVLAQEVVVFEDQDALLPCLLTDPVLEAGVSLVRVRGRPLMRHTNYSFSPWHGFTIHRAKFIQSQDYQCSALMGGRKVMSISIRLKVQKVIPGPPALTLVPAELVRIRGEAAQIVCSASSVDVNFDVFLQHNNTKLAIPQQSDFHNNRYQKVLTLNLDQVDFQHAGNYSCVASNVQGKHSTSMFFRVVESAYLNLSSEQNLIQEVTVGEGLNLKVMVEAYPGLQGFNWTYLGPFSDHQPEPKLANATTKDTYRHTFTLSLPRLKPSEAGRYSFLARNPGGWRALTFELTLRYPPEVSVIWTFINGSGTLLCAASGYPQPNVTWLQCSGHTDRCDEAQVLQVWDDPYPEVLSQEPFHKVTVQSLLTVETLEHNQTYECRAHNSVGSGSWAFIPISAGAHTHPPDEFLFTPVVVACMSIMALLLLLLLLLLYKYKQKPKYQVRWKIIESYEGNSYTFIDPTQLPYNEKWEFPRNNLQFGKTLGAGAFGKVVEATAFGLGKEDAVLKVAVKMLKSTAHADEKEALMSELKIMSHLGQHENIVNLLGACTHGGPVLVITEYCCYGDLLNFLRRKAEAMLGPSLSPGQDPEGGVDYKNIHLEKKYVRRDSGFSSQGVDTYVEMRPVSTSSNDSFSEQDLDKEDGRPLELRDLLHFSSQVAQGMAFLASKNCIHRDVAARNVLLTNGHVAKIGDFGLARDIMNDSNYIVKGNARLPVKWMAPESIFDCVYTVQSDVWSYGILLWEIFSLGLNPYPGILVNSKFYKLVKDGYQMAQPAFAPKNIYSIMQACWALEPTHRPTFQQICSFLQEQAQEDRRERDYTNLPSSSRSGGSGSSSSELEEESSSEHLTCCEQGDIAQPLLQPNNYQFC

In general, Kd refers to the constant that tells how readily two partners part at equilibrium. Take `COc1cc2nccc(Oc3ccc(NC(=O)c4nn(C5CC5)cc4OCC(F)(F)F)nc3)c2cc1OC` [Compound 5]: the Kd on Axl and at CSF1R (read-out: CSF1R kinase binding activity (Kd)) was below 100 nM throughout. The inhibition at 0.1 µM on CSF1R (setting [1]) was 97%; at CSF1R (setting [2]), at least 80%.

On to `COc1cc2nccc(Oc3ccc(NC(=O)c4nn(C5CCOC5)cc4OCC(F)(F)F)c(F)c3)c2cc1OC` (stereo not shown) [Compound 77], for which, on Axl, the Kd was below 100 nM. The figures for the inhibition at 0.1 µM on CSF1R (setting [1]) and at CSF1R (setting [2]) were 76% and 50 to 80%, respectively.

For `COc1cc2nccc(Oc3ccc(NC(=O)c4nn(C5CCNC5)cc4OCC(F)(F)F)cc3F)c2cc1OC` (stereo not shown) [Compound 78], the Kd on Axl is below 100 nM. The results for the inhibition at 0.1 µM at CSF1R (setting [1]) and at CSF1R (setting [2]) were 11% and below 50%, respectively.

Take `COc1cc2nccc(Oc3ccc(NC(=O)c4nn(CCN)cc4OCC(F)(F)F)cc3F)c2cc1OC` [Compound 79]: the Kd on Axl is below 100 nM. Moreover, the inhibition at 0.1 µM is 12% on CSF1R (setting [1]) and below 50% on CSF1R (setting [2]).

On to `COc1cc2nccc(Oc3ccc(NC(=O)c4nn(CC(C)O)cc4OCC(F)(F)F)cc3F)c2cc1OC` (stereo not shown) [Compound 80], for which the Kd on Axl was below 100 nM. In addition, the inhibition at 0.1 µM is 64% at CSF1R (setting [1]) and 50 to 80% on CSF1R (setting [2]).

For `COc1cc2nccc(Oc3ccc(NC(=O)c4nn(C5CCNC5)cc4OCC(F)(F)F)cc3C)c2cc1OC` (stereo not shown) [Compound 81], the Kd at Axl was at least 500 nM. Further, the inhibition at 0.1 µM at CSF1R (setting [1]) was 46%; on CSF1R (setting [2]), below 50%.

Take `COc1cc2nccc(Oc3ccc(NC(=O)c4nn(CCN)cc4OCC(F)(F)F)cc3C)c2cc1OC` [Compound 82]: the equilibrium dissociation constant (Kd) at Axl is at least 500 nM. For the same molecule, the inhibition at 0.1 µM at CSF1R (setting [1]) is 35%; at CSF1R (setting [2]), below 50%.

Regarding `COc1cc2nccc(Oc3ccc(NC(=O)c4nn(CC(C)O)cc4OCC(F)(F)F)cc3C)c2cc1OC` (stereo not shown) [Compound 83], on Axl, the Kd was below 100 nM. The values for the inhibition at 0.1 µM at CSF1R (setting [1]) and at CSF1R (setting [2]) were 97% and at least 80%, respectively.

In the case of `COCCn1cc(OCC(F)(F)F)c(C(=O)Nc2ccc(Oc3ccnc4cc(OC)c(OC)cc34)c(C)c2)n1` [Compound 84], the Kd at Axl is below 100 nM. The inhibition at 0.1 µM at CSF1R (setting [1]) was 97%; at CSF1R (setting [2]) it was at least 80%.

As for `COc1cc2nccc(Oc3ccc(NC(=O)c4nn(C5CCOC5)cc4OCC(F)(F)F)cc3C)c2cc1OC` (stereo not shown) [Compound 85], at Axl, the Kd is below 100 nM. For the same molecule, the inhibition at 0.1 µM at CSF1R (setting [1]) was 78%; on CSF1R (setting [2]), 50 to 80%.

In the case of `COc1cc2nccc(Oc3ccc(NC(=O)c4nn(C5CCNC5)cc4OCC(F)(F)F)cc3)c2cc1OC` (stereo not shown) [Compound 86], the Kd on Axl was 100 to 500 nM. The inhibition at 0.1 µM is 11% at CSF1R (setting [1]) and below 50% at CSF1R (setting [2]).

For `COc1cc2nccc(Oc3ccc(NC(=O)c4nn(CC(C)C)cc4OCC(F)(F)F)cc3)c2cc1OC` [Compound 87], the Kd at Axl is below 100 nM. For the same molecule, the inhibition at 0.1 µM at CSF1R (setting [1]) was 71%; at CSF1R (setting [2]) it was 50 to 80%.

Turning to `COc1cc2nccc(Oc3ccc(NC(=O)c4nn(CCN)cc4OCC(F)(F)F)cc3)c2cc1OC` [Compound 88], the Kd on Axl lay within 100 to 500 nM. Also, the inhibition at 0.1 µM on CSF1R (setting [1]) is 21%; on CSF1R (setting [2]) it was below 50%.

For `COc1cc2nccc(Oc3ccc(NC(=O)c4nn(CC(C)O)cc4OCC(F)(F)F)cc3)c2cc1OC` (stereo not shown) [Compound 89], the dissociation constant (Kd) at Axl was below 100 nM. Also, the inhibition at 0.1 µM on CSF1R (setting [1]) was 56%; on CSF1R (setting [2]) it was 50 to 80%.

For the molecule `COc1cc2nccc(Oc3ccc(NC(=O)c4nn(C5CCOCC5)cc4OCC(F)(F)F)nc3)c2cc1OC` [Compound 90], on Axl, the Kd is below 100 nM. Moreover, the inhibition at 0.1 µM on CSF1R (setting [1]) was 95%; at CSF1R (setting [2]), at least 80%.

With `COc1cc2nccc(Oc3ccc(NC(=O)c4nn(C5CCN(C)C5)cc4OCC(F)(F)F)nc3)c2cc1OC` (stereo not shown) [Compound 91], the Kd on Axl is below 100 nM. Also, the results for the inhibition at 0.1 µM at CSF1R (setting [1]) and at CSF1R (setting [2]) were 99% and at least 80%, respectively.

On to `COc1cc2nccc(Oc3ccc(NC(=O)c4nn(CCC5CCCC5)cc4OCC(F)(F)F)nc3)c2cc1OC` [Compound 93], for which the Kd on Axl was below 100 nM. Moreover, the inhibition at 0.1 µM at CSF1R (setting [1]) is 89%; on CSF1R (setting [2]), at least 80%.

On to `COc1cc2nccc(Oc3ccc(NC(=O)c4nn(C5CCN(C)C5)cc4OCC(F)(F)F)c(F)c3)c2cc1OC` (stereo not shown) [Compound 94], for which the Kd on Axl was below 100 nM. Besides, the inhibition at 0.1 µM was 65% at CSF1R (setting [1]) and 50 to 80% at CSF1R (setting [2]).

For `COc1cc2nccc(Oc3ccc(NC(=O)c4nn(CC5COC5)cc4OCC(F)(F)F)c(F)c3)c2cc1OC` [Compound 95], the Kd at Axl was below 100 nM. The inhibition at 0.1 µM at CSF1R (setting [1]) is 61%; on CSF1R (setting [2]), 50 to 80%.

For the origin of these results see patent US12162858B2, “Quinoline derivatives as inhibitors of AXL/MER RTK and CSF1R” (QURIENT CO., LTD., priority 2018, dated 2024).
